Laboratory results published in paper PMC9791066, “Investigations into the antibacterial effects and potential mechanism of gambogic acid and neogambogic acid” (Frontiers in Microbiology, 2022).
In brackets after ≈: the same amount, converted by molar mass. Where two headings read alike, the source gives them in different places.

Key:
[1] = tested on: Escherichia coli BL21 (DE3); assay: microbe, parasite or virus in culture; type: cell-based; details: LB broth, 18 h
Experimental: (§1) Antibacterial activities were performed by examining the minimal inhibitory concentrations (MICs), which was determined by a microtiter broth dilution method as previously described ([Cotsonas King and Wu, 2009]), with minor modifications. Briefly, 96-well plates (Corning) were inoculated with 100 μl of LB broth per well containing 7 × 10^5 CFU/mL bacteria, followed by adding 100 μl of LB broth containing two-fold serial dilutions of the test compounds. […] After 18 h of incubation, the MIC was determined to be the lowest concentration without visible bacterial growth. The results were the averages of at least three biological replicates.

[2] = tested on: Escherichia coli DH5α; assay: microbe, parasite or virus in culture; type: cell-based; details: LB broth, 18 h
Experimental: as §1

[3] = tested on: Escherichia coli BAS 849; assay: microbe, parasite or virus in culture; type: cell-based; details: LB broth, 18 h, strain with deficient outer-membrane structure
Experimental: as §1

[4] = tested on: MRSA; assay: MIC, microtiter broth dilution; type: cell-based, Staphylococcus aureus; details: LB broth, 18 h
Experimental: as §1

[5] = tested on: Enterococcus faecalis ATCC29212; assay: MIC, microtiter broth dilution; type: cell-based; details: LB broth, 18 h
Experimental: as §1

[6] = tested on: Listeria monocytogenes ATCC19117; assay: MIC, microtiter broth dilution; type: cell-based; details: LB broth, 18 h
Experimental: as §1

[7] = tested on: Staphylococcus aureus ATCC29213; assay: MIC, microtiter broth dilution; type: cell-based; details: LB broth, 18 h
Experimental: as §1

[8] = tested on: Escherichia coli ATCC25922; assay: MIC, microtiter broth dilution; type: cell-based; details: LB broth, 18 h
Experimental: as §1

[9] = Escherichia coli, read-out: MIC
[10] = Staphylococcus aureus, MRSA, read-out: MIC
[11] = Enterococcus faecalis, ATCC29212, read-out: MIC
[12] = Listeria monocytogenes, ATCC19117, read-out: MIC
[13] = Staphylococcus aureus, ATCC29213, read-out: MIC

Structure (SMILES): COc1cc(O)c2c(O)c3c(c4c2c1C1(C4)C(C)=CCCC1(C)C)C1(O)OC12CC(=O)C(C(N)=O)=C(O)C2(O)C3=O (stereo not shown) [VirB, viridicatumtoxins B]
- MIC [1]: > 64 µg/mL
- MIC [2]: > 64 µg/mL
- MIC [3]: 8 µg/mL (≈ 14.2 µM)
- MIC [4]: 1 µg/mL (≈ 1.77 µM)
- MIC [5]: 1 µg/mL (≈ 1.77 µM)
- MIC [6]: 1 µg/mL (≈ 1.77 µM)
- MIC [7]: 1 µg/mL (≈ 1.77 µM)
- MIC [8]: > 64 µg/mL

Structure (SMILES): COc1cc(O)c2c(O)c3c(c4c2c1[C@]1(C4)C(C)=CCCC1(C)C)[C@H](O)[C@@]1(O)CC(=O)C(C(N)=O)=C(O)[C@@]1(O)C3=O [VirA, viridicatumtoxins A]
- MIC [1]: > 64 µg/mL
- MIC [2]: > 64 µg/mL
- MIC [3]: 8 µg/mL (≈ 14.1 µM)
- MIC [4]: 1 µg/mL (≈ 1.77 µM)
- MIC [5]: 2 µg/mL (≈ 3.54 µM)
- MIC [6]: 2 µg/mL (≈ 3.54 µM)
- MIC [7]: 1 µg/mL (≈ 1.77 µM)
- MIC [8]: > 64 µg/mL

Structure (SMILES): CC1(C)S[C@@H]2[C@H](NC(=O)[C@H](N)c3ccccc3)C(=O)N2[C@H]1C(=O)O [Amp, ampicillin]
- MIC [1, 9]: 1 µg/mL (≈ 2.86 µM)
- MIC [2, 9]: 2 µg/mL (≈ 5.72 µM)
- MIC ([3]; Escherichia coli, BAS849, read-out: MIC): 0.5 µg/mL (≈ 1.43 µM)
- MIC [4, 10]: 1 µg/mL (≈ 2.86 µM)
- MIC [5, 11]: 0.5 µg/mL (≈ 1.43 µM)
- MIC [6, 12]: 1 µg/mL (≈ 2.86 µM)
- MIC [7, 13]: 1 µg/mL (≈ 2.86 µM)
- MIC ([8]; Escherichia coli, ATCC25922, read-out: MIC): 1 µg/mL (≈ 2.86 µM)

Structure (SMILES): CN(C)[C@@H]1C(O)=C(C(N)=O)C(=O)[C@@]2(O)C(O)=C3C(=O)c4c(O)cccc4[C@@](C)(O)[C@H]3C[C@@H]12 [Tet, Tetracycline]
- MIC [4, 10]: 2 µg/mL (≈ 4.5 µM)
- MIC [5, 11]: 8 µg/mL (≈ 18 µM)
- MIC [6, 12]: 2 µg/mL (≈ 4.5 µM)
- MIC [7, 13]: 0.5 µg/mL (≈ 1.13 µM)
